Results reported in patent publication EP0032304B1, “Antibiotic compositions” (ELI LILLY AND COMPANY, priority 1979, dated 1981).
Structures can show the parent of a compound that is named as a salt. Where two headings read alike, the source gives them in different places.

Assays:
[1] = test system: E. coli; experiment: 21 day trial in weanling pigs: treatment and control of colibacillosis, weight gain, feed efficiency, diarrhoea; assay type: in vivo; details: for Diarrhoea index: score 1 (formed stools only) to 5 (liquid stools only), scored twice daily for 13 days and once on the 14th day, 110 ppm in feed; for Percent increase over controls: Reduction of diarrhoea / Percent increase over controls: Average daily weight gain / Percent increase over controls: Improved feed efficiency / Average daily feed / Average daily gain / Feed efficiency: weanling pigs, 21 days; for Percent increase over controls: Reduction of diarrhoea: difference in incidence as percentage of the control incidence; for Percent increase over controls: Average daily weight gain / Percent increase over controls: Improved feed efficiency: vs non-treated control group; for Average daily feed / Average daily gain / Feed efficiency: tylosin phosphate and apramycin sulfate at 110 ppm in feed, combination 110 ppm of each
Text: Tylosin and apramycin were each administered in the feed at a level of 110 ppm. The antibiotic combination was likewise administered in the feed containing both antibiotics at the 110 ppm level. The results are shown as a percentage increase over a non-treated control group as calculated from the statistical evaluation of the data obtained in the study.
The efficacy of the tylosin-apramycin combination in the treatment and control of colibacillosis is shown by the results obtained in a 21 day trial with weanling pigs. The pigs were divided by weight into treatment and control groups of eight pigs. Each treatment was randomly assigned to three groups. The animals were fed a normal ration ad libitum with the treatment groups receiving feed containing 110 ppm of each antibiotic. Weight gains, feed efficiency and the incidence of diarrhoea were used to measure the response to treatment.
Ninety-six weanling pigs averaging 6.0 kg in weight were randomly allocated by weight into 12 pens of 8 pigs per pen. Four treatments were used in the study as follows: 1) Non-medicated controls; 2) apramycin fed at 110 ppm; 3) tylosin phosphate fed at 110 ppm; and 4) apramycin sulfate and tylosin phosphate both fed at 110 ppm. Each treatment was replicated through three pens.
The pigs were fed for 21 days ad libitum a ration of 20% protein corn-soy meal with some rolled oats included for roughage. Vitamins and minerals were added as needed to balance the ration. The only difference in the rations fed to all pigs was the inclusion of the appropriate antibiotic or antibiotic combination in each of the medicated rations. All feed was weighed as fed, with the feed remaining at the end of the weigh period, weighed and discarded. The pigs were weighed at the initiation of the study and weekly thereafter.
Diarrhoea scores were maintained on a pen basis. The scoring was done by the same person on a twice daily schedule for the first 13 days and once only on the 14th day. The scoring index was the same as that shown in footnote 2 of Table 5.

[2] = test system: M. Hyorhinis HH; experiment: Minimal inhibitory concentration vs mycoplasma in contaminated LLC-MK2 tissue culture; assay type: cell-based, Mycoplasma hyorhinis; details: for MIC: Mesomycoplasma hyorhinis
Method: (§1) Suspensions of monkey kidney cells, LLC-MK2, in medium 199 (Morgan et al., Proc. Soc. Exp. Biol. Med, 73, 1 1950), were inoculated with cultures of the indicated mycoplasma to achieve an inoculum concentration of 1.5xlO' organisms/ml of cell suspension. Control cultures and the mycoplasma positive cultures included in each test were incubated at 37°C for 3-5 days. After incubation the medium in all cultures was changed to 1% horse serum in Medium 199 containing 1.68 g of sodium bicarbonates per liter. The tissue cultures innoculated with mycoplasma (except for mycoplasma positive control cultures) were then treated with the indicated individual antibiotics alone or with the combination of antibiotics shown in Table 1. When combinations of antibiotics were tested equal amounts of the antibiotics were used.
(§2) Solutions of the antibiotics were made up in Medium 199 containing 1.68 g of sodium bicarbonate per liter of medium. The solutions were sterile filtered through a millipore filter having a 0.2 µm porosity and were stored at 4°C prior to use. Two fold dilutions of the antibiotic solutions were made and each antibiotic solution was added to separate cultures to determine the minimal inhibitory concentration. The medium in each culture was changed twice a week with fresh antibiotic solution at the same concentration being added at each medium change. After two weeks, medium changes were made without antibiotic for two more weeks. Samples of the cultures were taken before each medium change in the last two weeks and were cultured to determine the presence of mycoplasma.
Cell suspensions of LLC-MK2 (Monkey kidney cell line) in Medium 199 containing 1% house serum of 4 ml volumes in tissue culture flasks were inoculated with a 3 day old culture of Mycoplasma hyorhinis (5 x 10^8 organism per ml in Eaton's broth). Approximately 2 to 3% of the mycoplasma culture per volume of the cell suspension was used. After inoculation the cell suspensions were incubated at a temperature of 37°C for from three to five days. Control cultures were also made up in the same manner. After incubation the medium in the control cultures and the mycoplasma positive cultures was replaced with fresh Medium 199 containing 1.68 g of sodium bicarbonate and 1% horse serum. The cultures were then treated with solutions of tylosin, tobramycin, and with the combination of tylosin and tobramycin in Medium 199 containing 1.68 g of sodium bicarbonate per liter. Solutions of each individual antibiotic and of the combination at a concentration of 1000 µg/ml were prepared. […] By two-fold serial dilution solutions at various concentrations down to 0.39 µg/ml were prepared. Each of the antibiotic solutions was added to a separate flask containing the tissue culture.
The tissue culture medium was replaced in each flask twice a week and at each medium change for two weeks a fresh solution of the antibiotic at the same concentration was added. After two weeks fresh medium replacements were made for two more weeks without the addition of antibiotic. Samples of each culture were taken before each medium replacement and were cultured to determine the presence of mycoplasma.

[3] = 28 day weight gain and feed utilization trial in post weaned pigs; assay type: in vivo; details: 28 days; for Daily feed intake (Rel) / Daily gain (Rel) / Feed efficiency (Rel) / Final weight (Rel): comparison to negative controls (100), 100 ppm in feed; for Daily feed intake x̄ (kg) per animal / Daily gain x̄ (g) per animal / Feed efficiency x̄ (kg feed/kg gain) / Final weight x̄ (kg) per animal: post weaned pigs, 100 ppm in feed (combination 100 ppm of each); for Final weight x̄ (kg) per animal: mean of two like trials
Method: The trials were carried out in pens with 6 pigs per pen for 28 days. The pigs were of mixed sex having an average initial body weight of 12.89 kg and an average age of six weeks. The animals received water before and after feeding. The animals were fed twice daily with feed having the following composition.
The tylosin-apramycin combination was compared in the trials with tylosin alone and with apramycin alone. The antibiotics and the combination thereof were administered in the animal feed at a level of 100 ppm, and, in the case of the combination; at 100 ppm for each antibiotic.

[4] = test system: P. hemolytica strain 41 D; experiment: In vitro MIC and checkerboard titration of the combination; assay type: cell-based, Pasturella hemolytica; details: antibiotic alone
Method: This organism can cause pneumonia in cattle which in cases of severe infection can lead to death. […] The synergistic activity of the combination of the two antibiotics was determined by the "checkerboard" titration method. In this method two antibiotics are tested in serial dilutions and in all combinations of these dilutions together to find the concentrations of each antibiotic, both alone and in combination, that inhibit growth of the test microorganism. The nature of the interaction between the two antibiotics may be determined algebraically or geometrically. In the algebraic method, the concentration of each antibiotic in the combination that inhibits growth is expressed as a fraction of the concentration that produces the same effect when the antibiotic is used alone. When the sum of these fractions is one, the combination is additive, when the sum is less than one, the combination is synergistic; and when the sum is greater than one, the combination is antagonistic.
Below are shown the calculations using data obtained in the in vitro test of tylosin, apramycin and the combination of the two antibiotics against P. hemolytica.

[5] = test system: M. Hyorhinis; experiment: Minimal inhibitory concentration vs mycoplasma in contaminated LLC-MK2 tissue culture; assay type: cell-based; details: LLC-MK2 tissue culture contaminated with M. Hyorhinis, combinations contain equal amounts of each antibiotic
Method: as §1, §2
Cell suspensions of LLC-MK2 (Monkey kidney cell line) in Medium 199 containing 1% house serum of 4 ml volumes in tissue culture flasks were inoculated with a 3 day old culture of Mycoplasma hyorhinis (5 x 10^8 organism per ml in Eaton's broth). Approximately 2 to 3% of the mycoplasma culture per volume of the cell suspension was used. After inoculation the cell suspensions were incubated at a temperature of 37°C for from three to five days. Control cultures were also made up in the same manner. […]

[6] = test system: M. gallisepticum 36 F; experiment: as above; assay type: cell-based; details: LLC-MK2 tissue culture contaminated with M. gallisepticum 36 F (chicken mycoplasma), combinations contain equal amounts of each antibiotic
Method: as §1, §2

[7] = test system: M. gallisepticum 41313; experiment: as above; assay type: cell-based; details: Mycoplasmoides gallisepticum; LLC-MK2 tissue culture contaminated with M. gallisepticum 41313 (chicken mycoplasma); combinations contain equal amounts of each antibiotic
Method: as §1, §2

[8] = test system: M. Hyorhinis HEK; experiment: as above; assay type: cell-based; details: Mesomycoplasma hyorhinis; LLC-MK2 tissue culture contaminated with M. Hyorhinis HEK (isolate from human embryonic kidney tissue); combinations contain equal amounts of each antibiotic
Method: as §1, §2

[9] = test system: Swine L3F12F7; experiment: as above; assay type: cell-based; details: Mycoplasmopsis arginini; LLC-MK2 tissue culture contaminated with Swine L3F12F7 (mycoplasma isolated from swine); combinations contain equal amounts of each antibiotic
Method: as §1, §2

[10] = 110 ppm of each antibiotic in feed
[11] = LLC-MK2 tissue culture contaminated with M. Hyorhinis HH (isolate from human heart tissue), combinations contain equal amounts of each antibiotic, read-out: Minimal inhibitory concentration
[12] = LLC-MK2 tissue culture contaminated with M. Hyorhinis HH (isolate from human heart tissue), combinations contain equal amounts of each antibiotic

## CN[C@@H]1[C@@H](O[C@H]2O[C@H](CO)[C@@H](N)[C@H](O)[C@H]2O)OC2C[C@@H](N)[C@@H](O[C@H]3[C@H](O)[C@@H](O)[C@H](N)C[C@@H]3N)OC2[C@@H]1O (stereo partly drawn) [Apramycin]
[1]
  Diarrhoea index: 1.64
  Average daily feed: 0.47 kg
  Average daily gain: 0.29 kg
  Feed efficiency: 1.64
[1]; [10]
  Percent increase over controls: Reduction of diarrhoea: 42.8%
  Percent increase over controls: Average daily weight gain: 19.0%
  Percent increase over controls: Improved feed efficiency: 10.3%
[2]; [11]
  MIC: 600 µg/mL
[3]
  Daily feed intake (Rel): (100) percentage
  Daily gain (Rel): (110) percentage
  Feed efficiency (Rel): (92) percentage
  Final weight (Rel): (102) percentage
  Daily feed intake x̄ (kg) per animal: 0,92 kg
  Daily gain x̄ (g) per animal: 467 g
  Feed efficiency x̄ (kg feed/kg gain): 1,96 kg feed/kg gain
  Final weight x̄ (kg) per animal: 25,62 kg
[4]
  MIC: 25 µg/mL

## CO[C@@H]1[C@@H](O[C@@H]2O[C@H](C)[C@@H](O[C@H]3C[C@@](C)(O)[C@@H](OC(=O)CC(C)C)[C@H](C)O3)[C@H](N(C)C)[C@H]2O)[C@@H](CC=O)C[C@@H](C)[C@@H](O)/C=C/C=C/C[C@@H](C)OC(=O)C[C@H]1O [Leucomycin]
[2]; [12]
  Minimal inhibitory concentration: >400 µg/mL
[2]; [11]
  MIC: 400 µg/mL

## NC[C@H]1O[C@H](O[C@H]2[C@H](O)[C@@H](O[C@H]3O[C@H](CO)[C@@H](O)[C@H](N)[C@H]3O)[C@H](N)C[C@@H]2N)[C@H](N)[C@@H](O)[C@@H]1O [Nebramycin Factor 5]
[2]; [12]
  Minimal inhibitory concentration: 200 µg/mL

## CO[C@H]1C[C@H](O[C@H]2[C@H](C)[C@@H](O[C@@H]3O[C@H](C)C[C@H](N(C)C)[C@H]3O)[C@@H](C)C[C@@]3(CO3)C(=O)[C@H](C)[C@@H](O)[C@@H](C)[C@@H](C)OC(=O)[C@@H]2C)O[C@@H](C)[C@@H]1O [Oleandomycin]
[2]; [11]
  MIC: 400 µg/mL

## NCC1OC(OC2C(N)CC(N)C(OC3OC(CO)C(O)C(N)C3O)C2O)C(N)CC1O (stereo not drawn) [Tobramycin sulfate]
[2]; [11]
  MIC: 200 µg/mL

## NC[C@H]1O[C@H](O[C@H]2[C@H](O)[C@@H](O[C@H]3O[C@H](CO)[C@@H](O)[C@H](N)[C@H]3O)[C@H](N)C[C@@H]2N)[C@H](N)C[C@@H]1O [Tobramycin]
[2]; Example 4, procedure of Example 1, LLC-MK2 tissue culture, read-out: MIC
  MIC: 200 µg/mL
[5]; Mesomycoplasma hyorhinis
  MIC: 100 µg/mL
[6]; Mycoplasmoides gallisepticum
  MIC: 100 µg/mL
[7]
  MIC: 200 µg/mL
[8]
  MIC: > 500 µg/mL
[9]
  MIC: 50 µg/mL

## CC[C@H]1OC(=O)C[C@@H](O)[C@H](C)[C@@H](O[C@@H]2O[C@H](C)[C@@H](O[C@H]3C[C@@](C)(O)[C@@H](O)[C@H](C)O3)[C@H](N(C)C)[C@H]2O)[C@@H](CC=O)C[C@@H](C)C(=O)/C=C/C(C)=C/[C@@H]1CO[C@@H]1O[C@H](C)[C@@H](O)[C@@H](OC)[C@H]1OC [Tylosin]
[1]; plot in the accompanying drawing, 110 ppm of each antibiotic in feed
  mean diarrhoea scores vs time in days (incidence of diarrhoea): some effectiveness
[1]
  Diarrhoea index: 2.10
  Average daily feed: 0.51 kg
  Average daily gain: 0.31 kg
  Feed efficiency: 1.62
[1]; [10]
  Percent increase over controls: Reduction of diarrhoea: 26.4%
  Percent increase over controls: Average daily weight gain: 29.7%
  Percent increase over controls: Improved feed efficiency: 11.4%
[2]; [12]
  Minimal inhibitory concentration: 200 µg/mL
[3]
  Daily feed intake (Rel): (100) percentage
  Daily gain (Rel): (106) percentage
  Feed efficiency (Rel): (97) percentage
  Final weight (Rel): (102) percentage
  Daily feed intake x̄ (kg) per animal: 0,92 kg
  Daily gain x̄ (g) per animal: 449 g
  Feed efficiency x̄ (kg feed/kg gain): 2,07 kg feed/kg gain
  Final weight x̄ (kg) per animal: 25,58 kg
[4]
  MIC: 50 µg/mL
[8]
  MIC: > 200 µg/mL
[9]
  MIC: 200 µg/mL

## Gentamicin
[5]
  Minimal inhibitory concentration: 100 µg/mL

## Magnamycin
[2]; [12]
  Minimal inhibitory concentration: >800 µg/mL

## Neomycin
[5]
  Minimal inhibitory concentration: 100 µg/mL

## Spiromycin
[2]; [12]
  Minimal inhibitory concentration: >800 µg/mL

## Tylosin tartrate
[2]; [12]
  Minimal inhibitory concentration: 200 µg/mL
[6]
  Minimal inhibitory concentration: >800 µg/mL
